Source: patent US10253039B2, “Inhibitors of bacterial DNA gyrase with efficacy against gram-negative bacteria” (priority 2014, dated 2019)
Values after ≈ are worked out from the molar mass of the structure shown. Like-named read-outs stand apart in the source and are kept apart here.

Legend:
Type in all cases: cell-based
[1] = tested on: Klebsiella pneumoniae subsp. pneumoniae; test: MIC, 20-strain panel
Method in brief: (§1)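 Broth microdilution per CLSI, 2-fold serial dilutions in Luria-Bertani medium with a 1:10000 inoculum from a growing subculture. Plates shaken at 37 °C for 16-18 h; MIC taken as lowest concentration showing no visible turbidity.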

[2] = tested on: Salmonella enterica subsp. enterica typhimurium; test: MIC, 20-strain panel
Method in brief: as §1

[3] = tested on: Streptococcus agalactiae; test: MIC, 20-strain panel
Method in brief: as §1

[4] = tested on: Shigella flexneri; test: MIC, 20-strain panel
Method in brief: as §1

[5] = tested on: E. coli MG1655; test: MIC, 20-strain panel; details: Escherichia coli, read-out: MIC
Method in brief: as §1

[6] = tested on: Staphylococcus saprophyticus subsp. saprophyticus; test: MIC, 20-strain panel
Method in brief: as §1

[7] = tested on: E. coli JW5503 (deltolC); test: MIC, 20-strain panel; details: Escherichia coli
Method in brief: as §1

[8] = tested on: Staphylococcus aureus subsp. aureus; test: MIC, 20-strain panel; details: read-out: MIC
Method in brief: as §1

[9] = tested on: Streptococcus pyogenes; test: MIC, 20-strain panel
Method in brief: as §1

[10] = tested on: Staphylococcus epidermidis; test: MIC, 20-strain panel
Method in brief: as §1

[11] = tested on: Edwardsiella tarda; test: MIC, microdilution in 96-well plates
Method in brief: as §1

[12] = tested on: E. coli BW25113; test: MIC, microdilution in 96-well plates; details: Escherichia coli, read-out: MIC
Method in brief: as §1

[13] = E: Klebsiella pneumoniae subsp. pneumoniae
[14] = F: Salmonella enterica subsp. enterica Typhimurium
[15] = H: Staphylococcus aureus subsp. aureus
[16] = Klebsiella pneumoniae subsp. pneumoniae
[17] = Salmonella enterica subsp. enterica Typhimurium
[18] = Staphylococcus aureus subsp. aureus

SMILES | MIC [1, 13] [µg/mL] | MIC [2, 14] [µg/mL] | MIC [3] [µg/mL] | MIC ([4]; G: Shigella flexneri) [µg/mL] | MIC ([5]; MG1655, A: E. coli MG1655) [µg/mL] | MIC [6] [µg/mL] | MIC ([7]; C: E. coli JW5503 (deltolC)) [µg/mL] | MIC [8, 15] [µg/mL] | MIC [9] [µg/mL] | MIC [10] [µg/mL] | MIC ([11]; D: Edwardsiella tarda) [µg/mL] | MIC ([12]; BW25113, B: E. coli BW25113) [µg/mL] | MIC [1, 16] [µg/mL] | MIC [2, 17] [µg/mL] | MIC [4] [µg/mL] | MIC ([5]; MG1655, E. coli MG1655) [µg/mL] | MIC ([7]; E. coli JW5503 (deltolC)) [µg/mL] | MIC [8, 18] [µg/mL] | MIC [11] [µg/mL] | MIC ([12]; BW25113, E. coli BW25113) [µg/mL]
COc1ccc(-c2ccc(CN3CC[C@@H](NS(=O)(=O)c4cccc(C#N)c4)C3)cc2)cc1 [Compound 80] | > 8 | > 8 | > 8 | > 8 | > 8 | > 8 | > 8 | > 8 | > 8 | > 8 | > 8 | > 8 |  |  |  |  |  |  |  | 
O=S(=O)(N[C@@H]1CCN(Cc2ccc(-c3ccccc3)cc2)C1)c1cc(F)cc(C(F)(F)F)c1 [Compound 71] | > 8 | > 8 | > 8 | > 8 | > 8 | > 8 | 4 (≈ 8.36 µM) | > 8 | 8 (≈ 16.7 µM) | > 8 | > 8 | > 8 |  |  |  |  |  |  |  | 
Cc1c(CN2CC[C@@H](NS(=O)(=O)c3cccc(OC(F)(F)F)c3)C2)cnn1-c1ccccc1 [Compound 144] |  |  | > 8 |  |  | > 8 |  |  | > 8 | > 8 |  |  | > 8 | > 8 | > 8 | > 8 | 8 (≈ 16.6 µM) | > 8 | > 8 | > 8
CC(C)Oc1ccc(CN2CC[C@@H](NS(=O)(=O)c3cncc(F)c3)C2)cc1 [Compound 150] |  |  | > 8 |  |  | > 8 |  |  | > 8 | > 8 |  |  | > 8 | > 8 | > 8 | > 8 | > 8 | > 8 | > 8 | > 8
O=S(=O)(N[C@@H]1CCN(Cc2ccc(OC3CC3)cc2)C1)c1cnc2ccccc2c1 [Compound 95] | > 8 | > 8 | > 8 | > 8 | > 8 | > 8 | > 8 | > 8 | > 8 | > 8 | > 8 | > 8 |  |  |  |  |  |  |  | 
CC(C)Oc1ccc(CN2CC[C@@H](NS(=O)(=O)c3cnc4ccccc4c3)C2)cc1 [Compound 93] | > 8 | > 8 | > 8 | > 8 | > 8 | > 8 | > 8 | > 8 | > 8 | > 8 | > 8 | > 8 |  |  |  |  |  |  |  | 
Cc1nn(C)c2ncc(S(=O)(=O)N[C@@H]3CCN(Cc4ccc(OC(C)C)cc4)C3)cc12 [Compound 123] | > 8 | > 8 | > 8 | > 8 | > 8 | > 8 | > 8 | > 8 | > 8 | > 8 | > 8 | > 8 |  |  |  |  |  |  |  | 
O=S(=O)(N[C@@H]1CCN(Cc2ccc(-c3cccs3)cc2)C1)c1cccc(OC(F)(F)F)c1 [Compound 53] | > 8 | > 8 | > 8 | > 8 | > 8 | > 8 | 4 (≈ 8.29 µM) | > 8 | > 8 | 8 (≈ 16.6 µM) | > 8 | > 8 |  |  |  |  |  |  |  | 
CC(C)Oc1ccc(CN2CC[C@@H](NS(=O)(=O)c3cccc(C(F)(F)F)c3)C2)cc1 [Compound 18] | > 8 | 8 (≈ 18.1 µM) | > 8 | > 8 | > 8 | > 8 | 0.5 (≈ 1.13 µM) | > 8 | > 8 | > 8 | > 8 | > 8 |  |  |  |  |  |  |  | 
O=S(=O)(N[C@@H]1CCN(Cc2ccc(-c3ccccc3)cc2)C1)c1cc(S(=O)(=O)c2ccccc2)cs1 [Compound 37] | > 8 | > 8 | > 8 | > 8 | > 8 | > 8 | > 8 | > 8 | > 8 | > 8 | > 8 | > 8 |  |  |  |  |  |  |  | 
O=S(=O)(N[C@@H]1CCN(Cc2ccc(-c3cccs3)cc2)C1)c1cccc(C(F)(F)F)c1 [Compound 32] | > 8 | 8 (≈ 17.1 µM) | > 8 | > 8 | > 8 | > 8 | 1 (≈ 2.14 µM) | > 8 | 8 (≈ 17.1 µM) | 8 (≈ 17.1 µM) | > 8 | > 8 |  |  |  |  |  |  |  | 
CSc1ccc(CN2CC[C@@H](NS(=O)(=O)c3cccc(C(F)(F)F)c3)C2)cc1 [Compound 86] | > 8 | > 8 | > 8 | > 8 | > 8 | > 8 | 4 (≈ 9.29 µM) | > 8 | > 8 | > 8 | > 8 | > 8 |  |  |  |  |  |  |  | 
CC(=O)c1cccc(S(=O)(=O)N[C@@H]2CCN(Cc3ccc(OC(C)C)cc3)C2)c1 [Compound 49] | > 8 | > 8 | > 8 | > 8 | > 8 | > 8 | 2 (≈ 4.8 µM) | > 8 | > 8 | > 8 | > 8 | > 8 |  |  |  |  |  |  |  | 
CC(C)(C)Oc1ccc(CN2CC[C@@H](NS(=O)(=O)c3cccc(C(F)(F)F)c3)C2)cc1 [Compound 23] | > 8 | > 8 | > 8 | > 8 | > 8 | > 8 | 0.5 (≈ 1.1 µM) | > 8 | > 8 | > 8 | > 8 | > 8 |  |  |  |  |  |  |  | 
CC(C)Oc1ccc(CN2CC[C@@H](NS(=O)(=O)c3cc(S(=O)(=O)c4ccccc4)cs3)C2)cc1 [Compound 29] | > 8 | > 8 | > 8 | > 8 | > 8 | > 8 | > 8 | > 8 | > 8 | > 8 | > 8 | > 8 |  |  |  |  |  |  |  | 
